The text below walks through data of PubChem BioAssay AID1035470 (Broad Institute, 2014).

Records with an inconclusive call do not appear. Calls of active or inactive are those of the source.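 Rule for the calls: active = compound lowering the normal-ribosome reporter at least twice as much as the humanized-ribosome reporter, growth loss under a set limit; inconclusive = no clear call, values can overlap the other calls; inactive = the rest.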

In this experiment the test system is E. coli WT-GFP vs G2058-humanized RFP, fluorescence, 24 h. The experiment is described as follows: growth inhibition of wild-type GFP E. coli versus G2058-humanized strain, dose response, G2058 mutant RFP vs wild-type GFP, cherry-pick, two tests (AID 1035470).
Setting [1] is: E. coli WT-GFP vs G2058-humanized RFP mixed culture, total growth OD600, 24 h.
The mark [2] stands for this setting: measured here: G2058 humanized mutant RFP growth.

Consider `COC(=O)C[C@H]1C[C@@H]2c3cc(NC(=O)Nc4ccc(C(F)(F)F)cc4)ccc3O[C@@H]2[C@H](CO)O1`, for which the AC50 was > 100 µM (inactive). In the case of `O=C(Nc1cccc2c1CCCC2)c1ccco1`, the AC50 is > 100 µM (inactive). Besides, under setting [1], the AC50 was above 100 µM.

Regarding `O=C1CSC(c2cccnc2)N1Cc1ccc(Cl)c(Cl)c1` (stereo not drawn), the AC50 under setting [1] was above 100 µM. Turning to `N#Cc1cccc(-c2ccc3c(c2)[C@H]2[C@H](CCN2C(=O)c2ccccc2F)[C@H](CO)N3)c1`, the AC50 is > 100 µM (inactive).

With `Nc1ccccc1Sc1ccc(C(F)(F)F)cc1[N+](=O)[O-]`, the AC50 is > 100 µM (inactive). This molecule also came in with an AC50 under setting [1] above 100 µM. Under setting [2], the AC50 was above 100 µM.

With `CCOc1cc(/C=C(\CC(=O)O)c2nc3ccccc3s2)ccc1OC`, the AC50 is > 100 µM (inactive). As for `CCOc1ccc(C(C)=O)cc1CN1C(=O)NC2(CCCCCCC2)C1=O`, the AC50 is > 100 µM (inactive). The same molecule had a half-maximal activity concentration (AC50) under setting [1] above 100 µM.

As to `Cc1cccc(NC(=O)c2sc3nc(-c4ccccc4)cn3c2C)n1`, the AC50 was > 100 µM (inactive). Moreover, the AC50 under setting [1] is above 100 µM. For `Cc1cccc(N2CCN(Cc3nc(-c4ccc(F)cc4F)oc3C)CC2)n1`, in that order: > 100 µM (inactive) and above 100 µM. Under setting [1], `COc1cccc(NC(=O)C(C)SCc2ccccc2)c1` (stereo not drawn) had a half-maximal activity concentration (AC50) above 100 µM. As to `CC(=O)c1c(C)nn(CC(O)COc2ccc3c(c2)CCC3)c1C` (stereo not drawn), the AC50 is > 100 µM (inactive).

Take `Cc1cccc(-c2ccc([C@@H]3[C@@H](CO)N4CCCCN(S(=O)(=O)c5ccccc5C)C[C@H]34)cc2)c1`: the AC50 under setting [1] was above 100 µM. On to `COc1cccc(NC(=O)COC(=O)Cc2ccc(Br)cc2)c1`, for which the AC50 is > 100 µM (inactive). The molecule also had an AC50 under setting [1] above 100 µM. As to `COc1cccc(S(=O)(=O)N2CCCCN3[C@H](C2)[C@H](c2ccc(C#CC(C)C)cc2)[C@@H]3CO)c1`, the AC50 is > 100 µM (inactive).

In the case of `CC(=O)N1CCOc2ccc(S(=O)(=O)N(C)c3ccc(C)cc3)cc21`, the AC50 was > 100 µM (inactive). On to `CN1CCN(c2nc(Nc3ccc(O)cc3)nc3ccccc23)CC1`, for which the AC50 was > 100 µM (inactive). The molecule further showed an AC50 under setting [1] above 100 µM. On to `Cc1ccc(-c2c[n+](CC(=O)Nc3ccccc3)c3n2CCC3)cc1`, for which, under setting [2], the AC50 is above 100 µM.

Turning to `Cc1ccc(C)c(-c2[nH]ncc2CN2CCCC(CO)(Cc3ccccc3C)C2)c1` (stereo not drawn), the AC50 was > 100 µM (inactive). The same molecule registered a concentration at half-maximal activity (AC50) under setting [1] above 100 µM. For `O=C(C[n+]1cc(-c2ccc(Cl)c(Cl)c2)n2c1CCC2)OCc1ccccc1`, in that order: > 100 µM (inactive) and above 100 µM. Regarding `Cc1cccc(C)c1-n1nnnc1C1(C)CCC(=O)N1Cc1cccs1` (stereo not drawn), the AC50 is > 100 µM (inactive).

With `CSCCC1NC(=O)N(C(C)C(=O)Nc2cc(Cl)cc(Cl)c2)C1=O` (stereo not drawn), the AC50 was > 100 µM (inactive). Besides, the AC50 under setting [1] is above 100 µM. Also, under setting [2], the AC50 was found to be 7.38 µM. As for `Cc1cccc(SCC(=O)Nc2ccccc2[N+](=O)[O-])c1`, the AC50 was > 100 µM (inactive). This molecule also gave an AC50 under setting [1] above 100 µM. In the case of `Oc1ccc(-c2csc(Nc3ncccn3)n2)cc1`, the half-maximal activity concentration (AC50) runs as follows: under setting [1], above 100 µM; under setting [2], above 100 µM. For the molecule `CN(Cc1nnc(-c2ccc(F)cc2)o1)c1ccccc1`, the AC50 was > 100 µM (inactive). Under setting [1], the AC50 is above 100 µM. For `CCc1cc2cc(OC)ccc2nc1SCC(=O)Nc1cc(OC)c(OC)cc1C(=O)O`, in that order: > 100 µM (inactive) and above 100 µM. Regarding `Cc1onc(-c2ccccc2Cl)c1C(=O)Nc1ccc(Cl)cn1`, the half-maximal activity concentration (AC50) under setting [1] is above 100 µM. Regarding `CCCC(=O)Nc1sc2c(c1C(=O)Nc1ccccn1)CCCC2`, the AC50 was > 100 µM (inactive). Further, under setting [1], the AC50 is above 100 µM. For `Cc1c(-c2cccc(Cl)c2)nc2ccccc2c1C(=O)N1CCC2(CC1)OCCO2`, the AC50 was > 100 µM (inactive). As for `CCCCCCC(=O)N1CCCC(c2nc(-c3cccc(OC)c3)no2)C1` (stereo not drawn), the AC50 is > 100 µM (inactive). This molecule also displayed an AC50 under setting [2] above 100 µM. As to `C[C@@H]1CN([C@@H](C)CO)C(=O)c2cc(NC(=O)Nc3cccc4ccccc34)ccc2O[C@@H](C)CCCCO[C@H]1CN(C)C(=O)CCCN(C)C`, the AC50 was > 100 µM (inactive). For the molecule `CN(C)CCNc1ncnc2c1sc1nc(N3CCCC3)c3c(c12)CC(C)(C)OC3`, the AC50 is > 100 µM (inactive). Also, the AC50 under setting [1] was above 100 µM. As for `Cc1cc2nc(SCC(=O)O)nc(C)c2cc1C`, the AC50 is > 100 µM (inactive). The molecule further showed an AC50 under setting [1] above 100 µM. On to `Nc1nc(Nc2ccccc2F)nc(N2CCOCC2)c1[N+](=O)[O-]`, for which the AC50 is > 100 µM (inactive).

On to `Nc1[nH]c(C(=O)c2ccccc2)c(-c2ccc(Br)cc2)c1C(=O)c1cccs1`, for which the AC50 was > 100 µM (inactive). Further, the concentration at half-maximal activity (AC50) under setting [1] was above 100 µM. As for `Cc1cc([N+](=O)[O-])nn1CC(=O)Nc1cc(F)ccc1F`, the AC50 was > 100 µM (inactive).

`COc1ccc2cc(CO)c3cc(OC)c(OC)cc3c2c1`: the AC50 under setting [1] is above 100 µM and the AC50 under setting [2] was above 100 µM.

`O=C(NCc1ccco1)c1ccc(COc2cccc3ccccc23)cc1`: the AC50 was > 100 µM (inactive). In addition, the AC50 under setting [1] was above 100 µM. As to `O=C(O)c1ccccc1NC(=O)C(c1ccccc1)c1ccccc1`, the AC50 is > 100 µM (inactive). Same read-out and setting: then `COc1ccc(-c2cc(C(=O)N3CCc4ccccc4C3)no2)cc1`, with > 100 µM (inactive). Take `CCOc1ccc2nc(SCC(=O)Nc3nonc3C)[nH]c2c1`: the AC50 was > 100 µM (inactive). As to `CC(C)C[C@H]1COc2cc(Br)ccc2S(=O)(=O)N1`, the AC50 is > 100 µM (inactive). The AC50 under setting [1] is above 100 µM. Under setting [2], this molecule came in with a concentration at half-maximal activity (AC50) above 100 µM. As for `O=C(CSc1nc(C2CC2)nc2ccccc12)Nc1ccccc1N1CCOCC1`, the AC50 was > 100 µM (inactive). The AC50 under setting [1] was above 100 µM. With `COc1ccccc1-c1cc2nc(NCCc3ccncc3)ccn2n1`, the AC50 is > 100 µM (inactive). Also, under setting [1], the half-maximal activity concentration (AC50) was above 100 µM. Regarding `CCCCc1ccc(S(=O)(=O)Nc2ccc(C)c(NS(C)(=O)=O)c2)cc1`, the AC50 was > 100 µM (inactive). With `COc1cc2cc(C(=O)Nc3ccc4c(c3)OCCO4)[nH]c2cc1OC`, the AC50 was > 100 µM (inactive). Consider `O=C(CN1C(=O)c2ccccc2C1=O)Nc1cccc(S(=O)(=O)Nc2ccccc2Cl)c1`, for which the AC50 is > 100 µM (inactive). In addition, under setting [1], the AC50 is above 100 µM.

Take `COc1cc(OC)cc(C(=O)Nc2ccc(C(=O)Nc3ccccc3OC)cc2)c1`: the AC50 was > 100 µM (inactive). The molecule also registered an AC50 under setting [1] above 100 µM. The molecule `Cc1noc(C)c1NC(=O)Nc1ccc2c(c1)C(=O)N([C@@H](C)CO)C[C@@H](C)[C@H](CN(C)C(=O)Nc1ccc3c(c1)OCO3)OCCCC[C@H](C)O2` registered an AC50 under setting [1] above 100 µM.

For `COc1ccccc1OCC(=O)Nc1ccc(S(=O)(=O)N2CCCCCC2)cc1`, the AC50 is > 100 µM (inactive). For the same molecule, the AC50 under setting [1] is above 100 µM. On the same counts, the results for `O=C(Nc1cccnc1)c1ccc([N+](=O)[O-])o1` are > 100 µM (inactive) and above 100 µM. On to `O=C(Nc1ccc(F)c(Cl)c1)C1CC2CCC1C2` (stereo not drawn), for which the AC50 is > 100 µM (inactive).

For `O=c1[nH]c(C2CCN(S(=O)(=O)c3ccc4c(c3)OCCO4)CC2)nc2c1nnn2Cc1ccccc1F`, the AC50 was > 100 µM (inactive). Also, the AC50 under setting [1] was above 100 µM. As for `C=CCSc1cc(C)nc2c(-c3ccccc3)c(C)nn12`, the AC50 was > 100 µM (inactive). Still for that read-out and setting: then `COc1ccc(CC(=O)NCc2csc(-c3cccs3)n2)cc1OC`, with > 100 µM (inactive). For the molecule `CC(C)(C)C1CCC(OC(=O)C[N+]2(C)CCCCC2)CC1` (stereo not drawn), the AC50 was > 100 µM (inactive). For the same molecule, under setting [1], the AC50 was above 100 µM.

On to `CCC1(C(=O)OC)CCc2c(cc(OC)c3ccccc23)C1=O` (stereo not drawn), for which the AC50 is > 100 µM (inactive).

For `COCC(C)NC(=O)c1nn(Cc2ccccc2)c(=O)c2ccccc12` (stereo not drawn), the AC50 under setting [1] was above 100 µM. As to `COc1ccc(NC(=O)Nc2cccc3c2O[C@H](CN(C)S(=O)(=O)c2ccc(Cl)cc2)[C@H](C)CN([C@H](C)CO)C3=O)cc1`, the AC50 is > 100 µM (inactive). The molecule `CC(C)(C)N(Cc1ccccc1)C(=O)COC(=O)Cn1cnc2ccccc2c1=O` registered an AC50 under setting [1] above 100 µM. On to `O=C1c2cccc(OCC(=O)N3CCCc4ccccc43)c2CCN1Cc1cccnc1`, for which the AC50 was > 100 µM (inactive). The molecule further gave a concentration at half-maximal activity (AC50) under setting [1] above 100 µM. Take `CC(C)(C)c1ccc(-c2noc(CCC(=O)NCc3ccco3)n2)cc1`: the AC50 was > 100 µM (inactive). The molecule also came in with an AC50 under setting [1] above 100 µM. Under setting [2], this molecule gave a half-maximal activity concentration (AC50) above 100 µM. Molecule `N#Cc1ccc(-c2ccc(C3[C@H]4CNC[C@@H]3N4S(=O)(=O)c3ccc(-c4ccccc4)cc3)cc2)cc1` (stereo partly drawn) came in with an AC50 under setting [1] above 100 µM.

As to `Cc1ccc(S(=O)(=O)N2CC(=O)Nc3ccccc32)cc1C`, the AC50 was > 100 µM (inactive). This molecule also had an AC50 under setting [1] above 100 µM. With `COC(=O)c1ccc(CCc2cc(O)c(Br)cc2O)cc1`, the AC50 under setting [1] was above 100 µM. For `CC1Cc2cc(-c3csc(NC(=O)Cc4ccccc4)n3)ccc2N1S(C)(=O)=O` (stereo not drawn), the AC50 was > 100 µM (inactive). This molecule also registered an AC50 under setting [1] above 100 µM. Under setting [2], `C=CCn1c(C)cc(C(=O)CSc2nnc(C3CC3)n2C2CC2)c1C` returned a concentration at half-maximal activity (AC50) of 48.6 µM. Take `CC1CCN(c2ccc3nnc(CCC(=O)Nc4cccc(F)c4)n3n2)CC1`: the AC50 is > 100 µM (inactive). The molecule also yielded an AC50 under setting [1] above 100 µM. As for `COCCn1c(SCC(=O)Nc2ccccc2OC)nc2ccccc21`, the AC50 was > 100 µM (inactive). The same measure, in the same setting: the result for `CCOC(=O)c1cc(-c2ccc(OC)cc2)n[nH]1` reads > 100 µM (inactive). Consider `O=S1(=O)c2ccc(Br)cc2OCCC2CCCCN21` (stereo not drawn), for which the AC50 was > 100 µM (inactive). Besides, the half-maximal activity concentration (AC50) under setting [1] is above 100 µM.

Turning to `COc1ccc(NC(=O)CSc2nnc(Cc3ccccc3)o2)c(OC)c1`, the AC50 was > 100 µM (inactive). The molecule further yielded an AC50 under setting [1] above 100 µM.

For the molecule `COc1ccc(-c2noc(CCc3ccccc3)n2)cc1`, the AC50 is > 100 µM (inactive).
